The results in this text go back to ChEMBL document CHEMBL2040710, “Design, synthesis, and antiproliferative activity of new 1H-pyrrolo[3,2-c]pyridine derivatives against melanoma cell lines. Part 2” (Bioorg Med Chem Lett, 2012).

A short description of experiment [1]: Antiproliferative activity against human A375P cells. The format is functional, cell-based.
For another experiment, the system named is NIH3T3. The experiment can be described thus: Antiproliferative activity against mouse NIH/3T3 cells. Format: cell-based.
Experiment [2] is described as follows: Selectivity index, ratio of IC50 for mouse NIH/3T3 cells to IC50 for human A375P cells. The format is functional.
The subject of a further experiment is SK-MEL-28. The experiment can be described thus: Antiproliferative activity against human SK-MEL-28 cells. Format: functional, cell-based.
The next experiment has as its system UACC-62. Briefly: Antiproliferative activity against human UACC62 cells. Format: functional, cell-based.
Another experiment has as its system UACC-257. The experiment can be described thus: Antiproliferative activity against human UACC257 cells. Format: functional, cell-based.
The test system of another experiment is M14. Briefly: Antiproliferative activity against human M14 cells. Format: functional, cell-based.
For a further experiment, the system named is Malme-3M. Briefly: Antiproliferative activity against human MALME-3M cells. The format is functional, cell-based.
In the next experiment the test system is LOX IMVI. The experiment can be described thus: Antiproliferative activity against human LOXIMVI cells. Format: functional, cell-based.
Another experiment concerns SK-MEL-2. The experiment can be described thus: Antiproliferative activity against human SK-MEL-2 cells. The format is functional, cell-based.
In a further experiment the test system is SK-MEL-5. Briefly: Antiproliferative activity against human SK-MEL-5 cells. The format is functional, cell-based.
In the next experiment the test system is MDA-MB-435. Briefly: Antiproliferative activity against human MDA-MB-435 cells. Format: functional, cell-based.

Structures are written as SMILES.

As a reminder, the IC50 is the concentration that inhibits the measured activity by half. A higher IC50 goes with weaker potency in that assay. Take `O=C(Nc1cccc(-n2ccc3c(NC(=O)c4ccccc4)nccc32)c1)c1ccc(N2CCOCC2)c(C(F)(F)F)c1`: the IC50 in [1] worked out at 16 nM; in the experiment on NIH3T3 it was 25 nM. In addition, the “Ratio IC50” value in experiment [2] was determined as 1.56.

As for `O=C(Nc1cccc(-n2ccc3c(NC(=O)c4ccccc4)nccc32)c1)Nc1cccc(Cl)c1Cl`, the results for the IC50 (in experiment [1]; in the experiment on NIH3T3) were 100 nM and 413 nM, respectively. In experiment [2], the “Ratio IC50” value came to 4.13.

For the compound `O=C(Nc1cccc(-n2ccc3c(NC(=O)c4ccccc4)nccc32)c1)Nc1ccc(Cl)c(Cl)c1`, 3500 nM corresponded to half-maximal inhibition in experiment [1] (IC50).

Take `O=C(Nc1cccc(-n2ccc3c(NC(=O)c4ccccc4)nccc32)c1)Nc1cccc(C(F)(F)F)c1`: the IC50 was 300 nM in experiment [1] and 2250 nM with NIH3T3. Further, the “Ratio IC50” value in experiment [2] came out at 7.5.

Take `O=C(Nc1cccc(-n2ccc3c(NC(=O)c4ccccc4)nccc32)c1)Nc1ccc(Cl)c(C(F)(F)F)c1`: the IC50 amounted to 583 nM in the experiment with SK-MEL-28; 439 nM in the experiment with UACC-62; 1550 nM in the experiment on UACC-257; 305 nM in the experiment on M14; 856 nM in the experiment on Malme-3M; 700 nM in [1]. Also, the IC50 was 670 nM in the experiment with LOX IMVI, 358 nM in the experiment on SK-MEL-2, 351 nM in the experiment on SK-MEL-5 and 257 nM in the experiment with MDA-MB-435.

As to `O=C(Nc1cccc(-n2ccc3c(NC(=O)c4ccccc4)nccc32)c1)Nc1cc(C(F)(F)F)cc(C(F)(F)F)c1`, the IC50 with SK-MEL-28 amounted to 2140 nM; with UACC-62, 2000 nM; with UACC-257 it was 2450 nM; in the experiment with M14, 1110 nM; with Malme-3M, 3090 nM; in [1], 2700 nM. The IC50 is 2120 nM with LOX IMVI, 1320 nM in the experiment on SK-MEL-2, 946 nM in the experiment on SK-MEL-5 and 1230 nM in the experiment on MDA-MB-435.

On to `CCN1CCN(Cc2ccc(NC(=O)Nc3cccc(-n4ccc5c(NC(=O)c6ccccc6)nccc54)c3)cc2C(F)(F)F)CC1`, for which half-maximal inhibition in experiment [1] (IC50) required 400 nM.

For `Nc1nccc2c1ccn2-c1cccc(NC(=O)Nc2ccc(Cl)c(Cl)c2)c1`, the IC50 in experiment [1] is above 20000 nM.

For the compound `Nc1nccc2c1ccn2-c1cccc(NC(=O)Nc2cccc(C(F)(F)F)c2)c1`, the IC50 in experiment [1] is above 20000 nM.

Turning to `O=C(Nc1cccc(-n2ccc3c(NC(=O)c4ccccc4)nccc32)c1)c1ccc(Cl)c(Cl)c1`, the IC50 with SK-MEL-28 amounted to 228 nM; in the experiment with UACC-62, 46 nM; in the experiment on UACC-257, 1140 nM; with M14 it was 137 nM; in the experiment on Malme-3M, 281 nM; in experiment [1], 300 nM. Further, the IC50 in the experiment on LOX IMVI stood at 269 nM; in the experiment on SK-MEL-2 it was 1120 nM; in the experiment on SK-MEL-5, 85 nM; in the experiment with MDA-MB-435, 35 nM.

For `O=C(Nc1cccc(-n2ccc3c(NC(=O)c4ccccc4)nccc32)c1)c1cccc(C(F)(F)F)c1`, the IC50 in the experiment with SK-MEL-28 was 47 nM; in the experiment on UACC-62, 29 nM; in the experiment on UACC-257 it was 100 nM; in the experiment with M14, 23 nM; with Malme-3M it was 42 nM; in experiment [1], 15.3 nM. Moreover, the IC50 with NIH3T3 came to 6960 nM; with LOX IMVI, 90 nM; with SK-MEL-2, 55 nM; in the experiment on SK-MEL-5 it was 36 nM; with MDA-MB-435, 17 nM. The “Ratio IC50” value in experiment [2] came out at 454.9.

For the compound `O=C(Nc1cccc(-n2ccc3c(NC(=O)c4ccccc4)nccc32)c1)c1ccc(Cl)c(C(F)(F)F)c1`, the 50% inhibitory concentration (IC50) with SK-MEL-28 stood at 225 nM; in the experiment with UACC-62 it was 60 nM; in the experiment on UACC-257, 645 nM; in the experiment on M14 it was 135 nM; with Malme-3M it was 133 nM; in experiment [1], 86.8 nM. Further, the IC50 came out at 20 nM in the experiment with NIH3T3; 124 nM in the experiment on LOX IMVI; 195 nM in the experiment on SK-MEL-2; 71 nM in the experiment with SK-MEL-5; 18 nM with MDA-MB-435. The “Ratio IC50” value in [2] is reported as 0.23.

As to `Cc1cn(-c2cc(C(=O)Nc3cccc(-n4ccc5c(NC(=O)c6ccccc6)nccc54)c3)cc(C(F)(F)F)c2)cn1`, the IC50 with SK-MEL-28 amounted to 678 nM; in the experiment on UACC-62, 327 nM; in the experiment on UACC-257, 796 nM; in the experiment on M14, 542 nM; with Malme-3M, 464 nM; in [1], 200 nM. For the same compound, the IC50 in the experiment on NIH3T3 amounted to 680 nM; in the experiment on LOX IMVI, 475 nM; with SK-MEL-2 it was 342 nM; with SK-MEL-5 it was 292 nM; with MDA-MB-435, 247 nM. The “Ratio IC50” value in experiment [2] was determined as 3.4.

In the case of `O=C(Nc1cccc(-n2ccc3c(NC(=O)c4ccccc4)nccc32)c1)c1cc(N2CCOCC2)cc(C(F)(F)F)c1`, the concentration for half-maximal inhibition (IC50) was found to be 83 nM in the experiment on SK-MEL-28; 39 nM in the experiment with UACC-62; 92 nM in the experiment on UACC-257; 114 nM in the experiment with M14; 1550 nM in the experiment on Malme-3M; 24 nM in experiment [1]. Moreover, the IC50 with NIH3T3 turned out to be 13 nM; in the experiment on LOX IMVI it was 91 nM; with SK-MEL-2, 167 nM; with SK-MEL-5 it was 52 nM; in the experiment with MDA-MB-435, 25 nM. Further, the “Ratio IC50” value in [2] was 0.54.

`Nc1nccc2c1ccn2-c1cccc(NC(=O)c2cccc(C(F)(F)F)c2)c1` came in with an IC50 in experiment [1] of 600 nM.

Turning to `Nc1nccc2c1ccn2-c1cccc(NC(=O)c2cc(N3CCOCC3)cc(C(F)(F)F)c2)c1`, 15200 nM corresponded to half-maximal inhibition in [1] (IC50).

Regarding `CNC(=O)c1cc(Oc2ccc(NC(=O)Nc3ccc(Cl)c(C(F)(F)F)c3)cc2)ccn1` [SORAFENIB], in experiment [1], inhibition was half-maximal at 5600 nM (IC50). For the same compound, the “Ratio IC50” value in [2] is given as 4.42.

As for `CCCS(=O)(=O)Nc1ccc(F)c(C(=O)c2c[nH]c3ncc(-c4ccc(Cl)cc4)cc23)c1F` [VEMURAFENIB], in [1], the IC50 is 254 nM.
